Legend:
[1] = Microdialysis pharmacokinetics in the interstitium of subcutaneous connective tissue; conditions: human; for AUC(0-t) / Cmax / Tmax / half-life: po, 1250 mg
From the text: (§1) Patients were in a supine position throughout the study period. Commercially available microdialysis probes (CMA 10®, CMA, Stockholm, Sweden) were inserted into a suitable cutaneous metastasis. A second microdialysis probe was inserted horizontally into the subcutaneous connective tissue of one thigh. The surface of the disinfected skin was punctured according to a previously described procedure ([Müller et al, 1995]). The position of the probes in the metastasis was established by ultrasound scanning. Subsequently, the microdialysis system was connected and perfused with Ringer's solution at a flow rate of 1.5 μl min^−1 by a microinfusion-pump (Precidor®; Infors-AG, Basel, Switzerland). After a 30 min baseline sampling period, probe calibration for capecitabine and FU was performed for a period of 30 min according to a retrodialysis procedure ([Stahle et al, 1991]). After a wash-out period of 30 min, the study drug was administered in the scheduled dose. Sampling was continued at 30-min intervals up to 300 min.
(§2) Sample collection and analysis of microdialysates and blood samples by capillary electrophoresis were performed according to a validated method with minor modifications ([Mader et al, 1998]). After thawing, 100 μl plasma were centrifuged through Centrisart-C4 filter units with a nominal molecular weight cutoff=10 000 (Sartorius, Germany) for 30 min at 37°C to separate free drug from protein-bound drug. […] Capecitabine, DFCR, DFUR (supplied by Roche, Basel, Switzerland), and FU (Sigma, St Louis, MO, USA) were evaluated in 200 mM tetraborate buffer (pH=9.5) monitoring the absorbance at three different wavelengths (capecitabine: 297 nm, DFCR: 282 nm, DFUR and FU: 268 nm).
(§3) To obtain absolute interstitial concentrations from dialysate concentrations, microdialysis probes were calibrated for in vivo recovery rates according to the retrodialysis method ([Müller et al, 1995],[1997]). The principle of this method relies on the assumption that the diffusion process is quantitatively equal in both directions across the semipermeable membrane. Therefore, the study drug is added to the perfusate and the disappearance rate through the membrane is taken as the in vivo recovery. The in vivo recovery value is calculated as: […]
(§4) Absolute interstitial fluid concentrations of free drug were calculated from dialysate concentrations by the following equation: […]
(§5) The following pharmacokinetic parameters were determined: AUC calculated using the trapezoidal rule, maximum concentration (cmax), time to maximum concentration (tmax), and elimination half-life (t1/2). For statistical calculations, pharmacokinetic parameters derived from different compartments were compared using the paired Wilcoxon test.

[2] = Plasma pharmacokinetics of free drug after oral capecitabine in breast cancer patients; assay type: in vivo, human; conditions: for Cmax / Tmax / half-life / AUC(0-t) / concentration at 1 day: human, plasma; for AUC(0-t): read-out: AUC0−5 h; for concentration at 1 day: one patient, day 1, slow absorption kinetics, read-out: plasma concentrations; for plasma concentrations: same patient, end of the first cycle (days 12–14)
Experimental: In parallel, a plastic cannula was inserted into an antecubital vein to monitor blood concentrations of the study drug at 30-min intervals. A total of 10 capecitabine-naive patients were studied after the first morning dose of day 1. Three of them were monitored once again between days 12 and 14 of cycle 1.
(§6) After thawing, 100 μl plasma were centrifuged through Centrisart-C4 filter units with a nominal molecular weight cutoff=10 000 (Sartorius, Germany) for 30 min at 37°C to separate free drug from protein-bound drug. […] Capecitabine, DFCR, DFUR (supplied by Roche, Basel, Switzerland), and FU (Sigma, St Louis, MO, USA) were evaluated in 200 mM tetraborate buffer (pH=9.5) monitoring the absorbance at three different wavelengths (capecitabine: 297 nm, DFCR: 282 nm, DFUR and FU: 268 nm). […] The intra-assay coefficient of variation for this method ranged from 3.4 to 6.9% with an interassay coefficient of variation ranging from 6.7 to 10.4%.

[3] = In vitro plasma protein binding (ultrafiltration); assay type: in vitro ADME
Experimental: as §6
The plasma protein binding of DFCR, DFUR, and FU was <4% up to 100 μg substance (ml plasma)^−1. In contrast, the plasma protein binding of capecitabine was determined to be 60% by in vitro binding experiments (data not shown).

[4] = Microdialysis pharmacokinetics in the interstitium of a cutaneous metastasis (tumour)
From the text: as §1, §2, §3, §4, §5

[5] = design: method as in Mackean et al, 1998; conditions: most slowly eliminating compound; ref Mackean et al, 1998; cited from earlier work
[6] = after capecitabine, cited from earlier work
[7] = oral, 1250 mg m^−2, Ratio of AUC0−5 h s.c. Tissue/plasma, median of single-patient ratios, n=10
[8] = po, free drug, median, n=10, 1250 mg capecitabine m^−2 orally, day 1, read-out: cmax
[9] = po, median, n=10, 1250 mg capecitabine m^−2 orally
[10] = po, median, n=10, 1250 mg capecitabine m^−2 orally, read-out: tmax
[11] = median of single-patient ratios, n=10
[12] = up to 100 μg substance (ml plasma)^−1
[13] = tissue biopsies, colorectal tumours, ref Schüller et al, 2000

Row | Kp [1, 7] | AUC(0-t) [1] [ng·h/mL] | Cmax [1] [ng/mL] | Tmax [1] [h] | half-life [1] [h] | Cmax [2, 8] [ng/mL] | half-life [2, 9] [h] | AUC(0-t) [2, 9] [ng·h/mL] | Tmax [2, 10] [h] | Kp ([4]; human, oral, 1250 mg m^−2) | Cmax ([4]; human, po, 1250 mg) [ng/mL] | Tmax ([4]; human, po, 1250 mg) [h] | half-life ([4]; human, po, 1250 mg) [h] | Ratio of AUC0−5 h Tumour/s.c. tissue [4, 11] | concentration at 1 day ([2]; oral, 1250 mg m^−2) [ng/mL] | plasma concentrations [2] | fraction unbound [3, 12] | SMILES | other results
1 | 1.31 | 3160 | 2700 | 2.25 | 0.59 | 2340 | 0.5 | 2360 | 1.75 | 1.76 | 2660 | 2.5 | 0.5 | 1.11 | – | – | – | CCCCCOC(=O)Nc1nc(=O)n([C@@H]2O[C@H](C)[C@@H](O)[C@H]2O)cc1F [Capecitabine] | Kp ([1]; oral, 1250 mg m^−2, ratio AUCconnective tissue/AUCplasma, subgroup of four patients): > 2; Cmax ([2]; oral, 1250 mg m^−2, capecitabine-naive patients, range between patients, read-out: range of cmax): 640 to 15400 ng/mL; Tmax ([2]; oral, 1250 mg m^−2, capecitabine-naive patients, range between patients, read-out: range of tmax): 1 to 3 h; fraction unbound ([3]; plasma, in vitro binding experiments (data not shown)): 0.4
2 | 0.67 | 8400 | 4370 | 2.5 | 0.76 | 6530 | 0.86 | 11300 | 1.75 | 0.67 | 4220 | 2.5 | 0.87 | 1.12 | ≤ 4000 | about 10 μg ml^−1 | > 0.96 | C[C@H]1O[C@@H](n2cc(F)c(N)nc2=O)[C@H](O)[C@@H]1O [DFCR, 5′-deoxy-5-fluorocytidine] | plasma half-life [5]: 1.22 h
3 | – | – | – | – | – | 3650 | 0.8 | 6420 | 2 | – | – | – | – | – | ≤ 4000 | about 10 μg ml^−1 | > 0.96 | C[C@H]1O[C@@H](n2cc(F)c(=O)[nH]c2=O)[C@H](O)[C@@H]1O [DFUR, 5′-deoxy-5-fluorouridine] | Kp ([1]; in vivo, Ratio of AUC0−5 h s.c. Tissue/plasma): 0.44; AUC(0-t) ([1]; in vivo): 2750 ng·h/mL; Kp ([4]; human, in vivo): 0.53; Ratio of AUC0−5 h Tumour/s.c. tissue ([4]; human, in vivo): 1.20; AUC0−5 h ([4]; human, in vivo, po, 1250 mg): 3.35 μg ml^ 1 h
4 | 1.53 | 360 | 330 | 2 | – | 250 | – | 290 | 2.5 | 0.66 | 260 | 3 | – | 0.66 | – | – | > 0.96 | O=c1[nH]cc(F)c(=O)[nH]1 [FU, 5-fluorouracil, reference compound] | FU levels in plasma ([2]; rarely exceeding, oral capecitabine regimen): ≤ 0.5 µg/mL; mean tumour/plasma ratio ([6]; patients with colorectal tumours, ref Schüller et al (2000)): 21; median ratio tumour/healthy tissue of FU concentration [6, 13]: 2.9; median tumour/plasma ratio of FU concentration [6, 13]: 16.6; detection in tumour interstitium ([4]; one patient, day 1): not observed

From paper PMC2376334, “Penetration of capecitabine and its metabolites into malignant and healthy tissues of patients with advanced breast cancer” (British Journal of Cancer, 2003)
